Source: patent US6358937B1, “Method for the treatment of cancer using phosphatidic acid-comprising compositions” (Modus Biological Membranes Ltd., priority 1996, dated 2002)

What was measured:
Assay type in all cases: cell-based, murine
P388 (unadapted) = test: Growth rate of unadapted P388 cells; details: unadapted P388 grown in the presence of 10^−8M drug; relative to unadapted P388 = 100
Description: (§1) P388/MET and P388/DOX resistant cell lines were developed as described in Example 7 above. Non-treated P388 cells and resistant cell lines of these cells were grown in the presence and absence of 10^−8M of MET or DOX as indicated in Table 5 below.

P388/MET = test: Growth rate of P388/MET resistant cells; details: P388/MET grown in the presence of 10^−8 drug, no lipid treatment
Description: as §1

P388/DOX = test: Growth rate of P388/DOX resistant cells; details: P388/DOX grown in the presence of 10^−8 drug, no lipid treatment
Description: as §1

SMILES | relative growth rate (P388 (unadapted)) | relative growth rate (P388/MET) | relative growth rate (P388/DOX)
COc1cccc2c1C(=O)c1c(O)c3c(c(O)c1C2=O)C[C@@](O)(C(=O)CO)C[C@@H]3O[C@H]1C[C@H](N)[C@H](O)[C@H](C)O1 [DOX, doxorubicine] | 10 ± 5 | 95 ± 5 | 95 ± 5
CN(Cc1cnc2nc(N)nc(N)c2n1)c1ccc(C(=O)N[C@@H](CCC(=O)O)C(=O)O)cc1 [MET, methotroxeate] | 10 ± 5 | 95 ± 5 | 93 ± 5
